BindingDB's records for doi:10.1016/j.bmcl.2019.06.049 (Dongguk University, 2019)

Target: T1, Nuclear factor erythroid 2-related factor 2 (Homo sapiens, UniProt Q16236)
T1 sequence (Q16236 whole entry): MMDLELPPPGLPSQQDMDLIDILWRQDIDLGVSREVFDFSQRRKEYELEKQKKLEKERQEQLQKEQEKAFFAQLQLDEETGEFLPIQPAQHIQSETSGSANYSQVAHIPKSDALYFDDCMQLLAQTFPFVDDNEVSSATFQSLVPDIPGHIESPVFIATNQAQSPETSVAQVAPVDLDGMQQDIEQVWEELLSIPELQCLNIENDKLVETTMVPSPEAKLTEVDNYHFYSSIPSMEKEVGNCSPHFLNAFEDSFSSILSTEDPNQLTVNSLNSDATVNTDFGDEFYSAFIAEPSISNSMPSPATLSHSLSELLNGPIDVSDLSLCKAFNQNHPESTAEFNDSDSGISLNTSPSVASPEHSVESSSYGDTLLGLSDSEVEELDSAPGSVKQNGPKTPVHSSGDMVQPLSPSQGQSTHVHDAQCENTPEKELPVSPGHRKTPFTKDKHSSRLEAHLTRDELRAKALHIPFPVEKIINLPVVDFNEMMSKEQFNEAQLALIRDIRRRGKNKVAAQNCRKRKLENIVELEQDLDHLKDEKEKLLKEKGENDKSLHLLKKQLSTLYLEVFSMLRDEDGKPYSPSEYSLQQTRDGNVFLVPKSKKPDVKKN
Experiment: Inhibition of NRF2 in human MDA-MB-231 cells harboring ARE-GFP-Luc assessed as reduction in ARE-luciferase activity after 16 hrs by firefly luciferase reporter gene assay

## COC(=O)[C@@]12OC[C@]34[C@H]([C@@H](O)[C@@H]1O)[C@@]1(C)CC(=O)C(O)=C(C)[C@@H]1C[C@H]3OC(=O)[C@H](OC(=O)C=C(C)C)[C@@H]24
  IC50: 29 nM
